Source: ChEMBL document CHEMBL1201862, “PubChem BioAssay data set” (2004)
Calls of active or inactive are those of the source.

How the values were obtained:
[1] = reduction of Shn3 3'UTR-driven luciferase in osteoblasts – cell-based, Clone20 osteoblasts, firefly luciferase, cherry-picked, dose response (AID 624132); type: functional;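 note: firefly luciferase luminescence from reporter carrying the Shn3 3'UTR in osteoblasts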
[2] = loss of viability in HepG2 cells – cell-based, CellTiter-Glo, cherry-picked, cytotoxicity control for Shn3 inhibitor project, dose response (AID 624134); type: functional
[3] = molecular target: 5-hydroxytryptamine receptor 1E (Homo sapiens, UniProt P28566); assay: Counterscreen assay for S1P3 antagonists: Dose response cell-based high throughput screening assay to identify antagonists of the 5-Hydroxytryptamine Receptor Subtype 1E (5HT1E). [Related pubchem assays: 1429, 485 ]; type: functional
[4] = Trypanosoma cruzi growth suppression in host cells – NIH3T3 host cells, beta-gal luminescence, confirmation (AID 2044); type: functional, cell-based;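 note: intracellular parasites grown in NIH/3T3 mouse fibroblasts as host cells; luminescent beta-galactosidase reporter signal from transgenic T. cruzi replicating inside host cells; inhibitors lower the luminescence signal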
[5] = non-specific 3'UTR reporter inhibition in Clone20-Shn3RL – cell-based, Renilla luciferase, cherry-picked, counter-screen for Shn3 inhibitor project, dose response (AID 624133); type: functional
[6] = molecular target: T1, Sphingosine 1-phosphate receptor 3 (Homo sapiens, UniProt Q99500); assay: Dose response cell-based high throughput screening assay for antagonists of the Sphingosine 1-Phosphate Receptor 3 (S1P3). [Related pubchem assays: 1429, 485 ]; type: functional
[7] = NIH3T3 cell viability loss – ATP luminescence, mouse fibroblasts, counter-screen, dose response (AID 2010); type: functional, cell-based;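 note: cells exposed to compound for about 90 hours before reading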
[8] = molecular target: Sphingosine 1-phosphate receptor 1 (Homo sapiens, UniProt P21453); assay: Dose Response Cell-Based Assay for Agonists of the Sphingosine 1-Phosphate Receptor 1 (S1P1): Purchased Analogues. [Related pubchem assays: 1192, 373, 439 ]; type: functional
[9] = molecular target: T2, Sphingosine 1-phosphate receptor 2 (Homo sapiens, UniProt O95136); assay: Dose Response Cell-Based Assay for Agonists of the Sphingosine 1-Phosphate Receptor 2 (S1P2): Purchased Analogues. [Related pubchem assays: 1192, 373, 439 ]; type: functional
[10] = molecular target: T1, Sphingosine 1-phosphate receptor 3; assay: Dose Response Cell-Based Assay for Agonists of the Sphingosine 1-Phosphate Receptor 3 (S1P3): Purchased Analogues. [Related pubchem assays: 373, 439 ]; type: functional
[11] = molecular target: Heat shock protein HSP 90-alpha (Homo sapiens, UniProt P07900); assay: Luminescence-based dose response biochemical high throughput screening assay for inhibitors of the Heat Shock Protein 90 (HSP90). [Related pubchem assays: 1831 (Summary AID.), 1846 (Confirmation screen.), 1789 (Primary screen.)]
[12] = Luminescence Cell-Based Dose Confirmation HTS to Identify Inhibitors of Polyadenylation.; type: functional
INS1 = assay: INS-1E survival protection against cytokine death – cell-based, luminescence, retest, dose response (AID 449756); type: functional; details: Rattus norvegicus, INS1;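 note: cell death triggered by IL-1 beta plus TNF-alpha plus IFN-gamma mixture; protective hits raise ATP signal compared with cytokine alone wells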
[13] = molecular target: T2, Sphingosine 1-phosphate receptor 2; assay: Dose Response Cell Based Assay for Agonists of the S1P2 Receptor. [Related pubchem assays: 729, 736, 843 ]; type: functional
[14] = molecular target: E3 ubiquitin-protein ligase Mdm2 (Homo sapiens, UniProt Q00987); assay: MDM2-luc reporter signal enhancers, multi-concentration potency testing, MDM2 ubiquitin-protein ligase inhibitor program, whole-cell format, luminescence detection, 384-well microplate (AID 1394); type: functional;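 note: MDM2 E3 inhibitors raise luminescence so EC50 is for signal enhancement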
Bcl-2-related protein A1 = molecular target: T3, Bcl-2-related protein A1 (Mus musculus, UniProt Q07440); type: functional;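 note: confirmatory dose–response counterscreen on Bfl-1, used to check hits from a UBC13 polyubiquitin inhibitor campaign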
T3 sequence (Q07440 whole entry): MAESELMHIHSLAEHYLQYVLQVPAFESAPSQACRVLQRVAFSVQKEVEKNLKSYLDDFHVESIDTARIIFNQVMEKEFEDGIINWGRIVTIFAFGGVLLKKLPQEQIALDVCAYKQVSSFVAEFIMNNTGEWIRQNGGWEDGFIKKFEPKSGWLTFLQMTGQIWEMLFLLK

[15] = molecular target: T4, Ubiquitin-conjugating enzyme E2 N (Homo sapiens, UniProt P61088); type: functional
T4 sequence (P61088 whole entry): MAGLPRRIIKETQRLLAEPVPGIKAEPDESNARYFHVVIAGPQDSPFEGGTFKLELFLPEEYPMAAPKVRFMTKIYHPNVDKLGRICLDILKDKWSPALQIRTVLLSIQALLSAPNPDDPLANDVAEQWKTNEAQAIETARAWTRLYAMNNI

[16] = molecular target: T4, Ubiquitin-conjugating enzyme E2 N; type: functional; remark: listed apart in the source
Oxytocin receptor = Oxytocin receptor (Homo sapiens, UniProt P30559); assay: Counterscreen for vasopressin 1 receptor (V1R) agonists: Fluorescence-based cell-based high throughput dose response assay for agonists of the Oxytocin Receptor (OXTR). [Related pubchem assays: 2435 (Primary screen (OXTR agonists in singlicate)), 434964 (Confirmation screen (V1R agonists in triplicate)), 434969 (Counterscreen (OXTR agonists in …; type: functional
[17] = molecular target: T5, Apoptotic protease-activating factor 1 (Homo sapiens, UniProt O14727); type: functional
T5 sequence (O14727 whole entry): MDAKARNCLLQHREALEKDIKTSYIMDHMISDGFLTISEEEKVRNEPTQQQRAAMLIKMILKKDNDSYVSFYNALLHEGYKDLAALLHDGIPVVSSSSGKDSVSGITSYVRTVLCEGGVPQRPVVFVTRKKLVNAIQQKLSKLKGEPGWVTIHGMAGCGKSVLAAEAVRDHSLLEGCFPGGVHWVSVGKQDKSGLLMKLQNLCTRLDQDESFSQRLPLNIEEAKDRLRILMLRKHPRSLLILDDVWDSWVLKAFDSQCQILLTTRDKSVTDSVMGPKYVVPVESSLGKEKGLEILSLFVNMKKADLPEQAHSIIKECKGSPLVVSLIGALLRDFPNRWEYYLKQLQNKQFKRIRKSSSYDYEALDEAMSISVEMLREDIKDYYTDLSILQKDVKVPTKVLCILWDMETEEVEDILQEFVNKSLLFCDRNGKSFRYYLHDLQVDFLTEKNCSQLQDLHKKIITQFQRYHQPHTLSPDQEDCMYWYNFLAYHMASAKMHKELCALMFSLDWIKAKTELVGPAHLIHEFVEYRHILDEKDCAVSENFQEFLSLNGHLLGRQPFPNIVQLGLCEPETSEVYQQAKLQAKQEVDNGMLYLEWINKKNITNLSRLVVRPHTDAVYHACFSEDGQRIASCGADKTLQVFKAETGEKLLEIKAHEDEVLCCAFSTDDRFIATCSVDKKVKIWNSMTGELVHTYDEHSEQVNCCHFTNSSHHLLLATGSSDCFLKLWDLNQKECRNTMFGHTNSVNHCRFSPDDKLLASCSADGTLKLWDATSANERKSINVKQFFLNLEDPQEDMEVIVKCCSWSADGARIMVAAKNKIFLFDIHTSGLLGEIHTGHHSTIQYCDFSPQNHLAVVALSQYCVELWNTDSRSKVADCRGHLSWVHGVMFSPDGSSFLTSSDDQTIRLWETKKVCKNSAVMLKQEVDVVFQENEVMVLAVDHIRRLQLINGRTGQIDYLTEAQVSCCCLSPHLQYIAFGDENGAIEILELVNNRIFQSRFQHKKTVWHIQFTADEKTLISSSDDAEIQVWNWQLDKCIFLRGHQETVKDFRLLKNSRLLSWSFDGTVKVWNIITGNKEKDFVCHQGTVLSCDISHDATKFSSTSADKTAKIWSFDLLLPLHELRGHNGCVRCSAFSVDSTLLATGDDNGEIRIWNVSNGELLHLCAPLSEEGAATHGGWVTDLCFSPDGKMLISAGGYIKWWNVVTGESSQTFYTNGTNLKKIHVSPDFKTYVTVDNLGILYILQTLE

Vasopressin V1a receptor = Vasopressin V1a receptor (Homo sapiens, UniProt P37288); assay: Fluorescence-based cell-based high throughput dose response screening assay for agonists of the vasopressin 1 receptor (V1R).; type: functional
Sequence of Vasopressin V1a receptor (P37288 whole entry): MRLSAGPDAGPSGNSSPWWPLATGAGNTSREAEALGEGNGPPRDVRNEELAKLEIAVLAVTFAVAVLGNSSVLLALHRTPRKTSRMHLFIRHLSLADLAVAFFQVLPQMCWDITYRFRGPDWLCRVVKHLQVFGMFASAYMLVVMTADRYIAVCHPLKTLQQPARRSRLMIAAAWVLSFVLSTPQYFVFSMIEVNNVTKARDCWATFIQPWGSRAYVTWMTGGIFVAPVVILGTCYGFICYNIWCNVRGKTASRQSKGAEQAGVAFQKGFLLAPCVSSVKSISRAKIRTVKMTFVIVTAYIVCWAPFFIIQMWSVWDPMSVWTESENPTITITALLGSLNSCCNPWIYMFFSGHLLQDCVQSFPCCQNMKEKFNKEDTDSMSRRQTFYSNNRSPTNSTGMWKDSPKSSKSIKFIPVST

T2 sequence (O95136 whole entry): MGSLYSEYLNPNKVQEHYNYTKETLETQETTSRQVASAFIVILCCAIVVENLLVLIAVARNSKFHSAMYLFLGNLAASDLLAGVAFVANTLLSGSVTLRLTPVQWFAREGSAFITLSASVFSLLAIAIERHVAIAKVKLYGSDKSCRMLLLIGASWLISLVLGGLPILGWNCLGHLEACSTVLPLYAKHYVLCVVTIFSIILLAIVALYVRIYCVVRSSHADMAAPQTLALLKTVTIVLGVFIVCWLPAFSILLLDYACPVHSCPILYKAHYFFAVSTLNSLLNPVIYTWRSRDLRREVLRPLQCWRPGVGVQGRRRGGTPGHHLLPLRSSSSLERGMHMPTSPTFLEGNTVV
T1 sequence (Q99500 whole entry): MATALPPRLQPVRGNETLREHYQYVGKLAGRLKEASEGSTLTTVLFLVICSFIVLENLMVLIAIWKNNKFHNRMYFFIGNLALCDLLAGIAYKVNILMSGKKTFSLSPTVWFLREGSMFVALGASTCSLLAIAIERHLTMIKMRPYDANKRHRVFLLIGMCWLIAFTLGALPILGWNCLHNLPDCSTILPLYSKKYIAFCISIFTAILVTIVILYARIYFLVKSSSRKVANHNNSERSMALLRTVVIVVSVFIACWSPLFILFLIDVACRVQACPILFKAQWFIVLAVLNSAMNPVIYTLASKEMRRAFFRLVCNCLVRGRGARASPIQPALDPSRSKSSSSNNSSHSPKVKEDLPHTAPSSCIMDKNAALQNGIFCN
Sequence of Sphingosine 1-phosphate receptor 1 (P21453 whole entry): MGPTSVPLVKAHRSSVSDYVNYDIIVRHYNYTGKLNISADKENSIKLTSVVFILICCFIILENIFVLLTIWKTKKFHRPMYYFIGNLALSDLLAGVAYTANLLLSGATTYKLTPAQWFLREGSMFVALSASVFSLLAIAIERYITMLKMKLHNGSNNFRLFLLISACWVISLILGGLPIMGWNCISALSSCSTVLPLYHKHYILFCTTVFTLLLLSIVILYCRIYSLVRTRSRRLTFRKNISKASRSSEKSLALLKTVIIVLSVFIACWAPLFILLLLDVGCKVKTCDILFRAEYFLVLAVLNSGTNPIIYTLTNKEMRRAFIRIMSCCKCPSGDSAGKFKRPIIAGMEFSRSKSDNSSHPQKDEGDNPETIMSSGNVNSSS
Sequence of Oxytocin receptor (P30559 whole entry): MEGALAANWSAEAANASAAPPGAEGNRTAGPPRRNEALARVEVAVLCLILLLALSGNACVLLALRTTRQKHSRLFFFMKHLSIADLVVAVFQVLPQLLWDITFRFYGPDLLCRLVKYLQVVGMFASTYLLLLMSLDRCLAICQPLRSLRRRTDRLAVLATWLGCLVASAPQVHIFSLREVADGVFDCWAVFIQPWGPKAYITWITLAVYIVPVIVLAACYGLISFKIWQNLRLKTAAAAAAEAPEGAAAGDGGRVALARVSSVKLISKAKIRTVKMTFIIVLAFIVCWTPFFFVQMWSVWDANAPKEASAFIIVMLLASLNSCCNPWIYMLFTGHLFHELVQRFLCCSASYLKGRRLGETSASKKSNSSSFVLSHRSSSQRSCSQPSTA
Sequence of 5-hydroxytryptamine receptor 1E (P28566 whole entry): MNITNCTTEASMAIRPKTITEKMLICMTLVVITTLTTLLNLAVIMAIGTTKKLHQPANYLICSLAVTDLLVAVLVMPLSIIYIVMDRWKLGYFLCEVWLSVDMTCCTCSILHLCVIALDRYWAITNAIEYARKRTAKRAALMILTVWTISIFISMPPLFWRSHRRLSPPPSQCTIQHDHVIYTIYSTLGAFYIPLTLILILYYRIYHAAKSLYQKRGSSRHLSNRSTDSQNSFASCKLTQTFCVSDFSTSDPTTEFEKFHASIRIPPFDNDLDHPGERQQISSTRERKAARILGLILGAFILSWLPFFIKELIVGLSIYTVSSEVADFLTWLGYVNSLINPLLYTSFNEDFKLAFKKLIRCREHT
Sequence of E3 ubiquitin-protein ligase Mdm2 (Q00987 whole entry): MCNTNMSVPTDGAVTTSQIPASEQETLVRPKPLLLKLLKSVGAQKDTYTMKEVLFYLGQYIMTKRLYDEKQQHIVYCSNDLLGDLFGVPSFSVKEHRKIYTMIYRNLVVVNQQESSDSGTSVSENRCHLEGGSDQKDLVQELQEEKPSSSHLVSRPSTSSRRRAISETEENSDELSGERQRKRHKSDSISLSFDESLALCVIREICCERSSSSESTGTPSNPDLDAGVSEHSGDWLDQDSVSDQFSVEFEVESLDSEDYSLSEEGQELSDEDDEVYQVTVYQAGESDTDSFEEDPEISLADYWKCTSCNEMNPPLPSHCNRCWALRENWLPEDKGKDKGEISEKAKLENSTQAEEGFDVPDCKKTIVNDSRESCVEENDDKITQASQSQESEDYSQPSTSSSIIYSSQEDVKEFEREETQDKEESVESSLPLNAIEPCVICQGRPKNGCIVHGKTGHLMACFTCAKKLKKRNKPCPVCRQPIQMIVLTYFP

FC(F)(F)c1cccc(NC(S)=NC(c2ccccc2)c2ccccc2)c1
AC50 [1]: 7.17 µM (active) | AC50 [2]: 21.2 µM (active) | IC50 [3]: > 50 µM (not active) | EC50 [4]: 2.22 µM (active) | AC50 [5]: 26.2 µM (active) | IC50 [6]: 3.29 µM (active) | EC50 [7]: 9.61 µM (active)

O=C(CSc1nnc(-c2ccco2)o1)N(C1CCCCC1)C1CCCCC1
EC50 [8]: 0.278 µM (active) | EC50 [9]: > 10 µM (not active) | EC50 [10]: 0.11 µM (active)

COC(=O)c1ccccc1OCCCOc1ccc(C=O)cc1OC
IC50 [11]: 0.314 µM (active)

COc1ccc(CNc2ncnc3sccc23)cc1
AC50 [1]: 1.66 µM (active) | EC50 [12]: > 120 µM (not active) | AC50 [2]: 36 µM (active) | AC50 (INS1): 5.39 µM (active) | AC50 [5]: 8.63 µM (active)

Cc1ccc(CNC(=O)CCNC(=O)c2ccco2)cc1
EC50 [13]: > 50 µM (not active)

CCOC(=O)C1CCN(C(=S)Nc2cc(C)ccc2C)CC1
EC50 [14]: 4.34 µM (not active)

C#CCOCCOCCOCCNc1nc(N2CCN(C(=O)CCCCCCCCCCNC(=O)[C@@H](CCC(=O)O)n3cc(CCCCCN)nn3)CC2)nc(N2CCN(C(=O)CCCCCCCCCCNC(=O)[C@H](CCCCN)n3cc(C[C@@H](C)CC)nn3)CC2)n1
IC50 (Bcl-2-related protein A1): > 20 µM (inactive) | IC50 [15]: 11.4 µM (active) | IC50 [16]: 4.52 µM (active) | EC50 (Oxytocin receptor): > 29.9 µM (not active) | IC50 [17]: 27.2 µM (active) | EC50 (Vasopressin V1a receptor): 8.37 µM (active)
